Laboratory results as given in patent publication US20120082727A1, “USE OF MAGNESIUM STEARATE IN DRY POWDER FORMULATIONS FOR INHALATION” (CHIESI FARMACEUTICI S.p.A., priority 2010, published 2012).

Experiment: Chemical stability of dry powder formulations on storage in glass vials, residual test compound and hydrolysis product by UPLC
Assay type: physicochemical
Details: 25 °C, 60% rel. humidity; for CHF 5551.02 values (%): hydrolysis degradation product
Protocol: Dry powder formulations were prepared comprising as a carrier either particles of alpha-lactose monohydrate 212-355 microns alone (coarse) or coated with magnesium stearate (coated). Said coated particles were obtained by mixing alpha-lactose monohydrate with 1% magnesium stearate in a Turbula mixer for 4 hours.
Samples of the manufactured mixtures were filled in glass vials and stored under stressing conditions ([…]) in comparison to a sample stored under long tem conditions (25 ° C., 60% relative humidity).
The percentage amount of residual test compound and of the degradation product due to hydrolysis, (R)-1-hydroxy-(2-oxo-2-thiophen-2-yl-ethyl)-1-azonia-bicyclo[2.2.2]octane; chloride quoted as CHF 5551.02, was determined in the two formulations by ultra performance liquid chromatography (UPLC) in comparison to the active ingredient without the carrier (API). The variation of CHF 5551.2 content with the time is also plotted in FIG. 3.

O=C(OC(c1cccc(F)c1)c1cccc(F)c1)O[C@H]1C[N+]2(CC(=O)c3cccs3)CCC1CC2.[Cl-] [Test compound, (R)-3-[bis-(3-fluoro-phenyl)-methoxycarbonyloxy]-1-(2-oxo-2-thiophen-2-yl-ethyl)-1-azonia-bicyclo[2.2.2]octane; chloride]
Test compound values (%) (0 days): 100.0%
Test compound values (%) (2 days): 99.9%
Test compound values (%) (4 days): 99.9%
Test compound values (%) (7 days): 99.9%
Test compound values (%) (9 days): 99.9%
Test compound values (%) (11 days): 99.9%
Test compound values (%) (14 days): 100.0%
CHF 5551.02 values (%) (0 days): 0.08%
CHF 5551.02 values (%) (2 days): 0.20%
CHF 5551.02 values (%) (4 days): 0.29%
CHF 5551.02 values (%) (7 days): 0.24%
CHF 5551.02 values (%) (9 days): 0.28%
CHF 5551.02 values (%) (11 days): 0.29%
CHF 5551.02 values (%) (14 days): 0.23%
